Counter-ions that a name gives are not always drawn. Like-named read-outs stand apart in the source and are kept apart here.
What was measured:
[1] = target: T1, BRAFV600E full-length (amino acids 2-766) (Homo sapiens, UniProt P15056, V600E); assay: B-Raf Accelerated MEK ATPase assay (BRAMA); assay type: biochemical; details: categorized
T1 construct: His6-tagged BRAFV600E full-length (amino acids 2-766); His6; made in house; host or cells: baculovirus expression system (insect cells)
In short: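 Coupled-enzyme readout: ADP generated by MEK-mediated ATP hydrolysis, uncoupled from ERK phosphorylation, is linked to NADH oxidation through pyruvate kinase and lactate dehydrogenase.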

[2] = test system: Human colon tumor cells (Colo205); assay: Cell growth inhibition assay (CellTiter-Glo), Colo205; assay type: cell-based
In short: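 Read-out was CellTiter-Glo luminescence (total ATP as a cell-number surrogate), expressed as % inhibition against DMSO vehicle wells. Before that, cells grown in RPMI/10% FBS were treated for 3 days at 37 °C with ten 1:3-spaced compound concentrations, final DMSO 0.2%.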

[3] = test system: Human melanoma cancer cells (SK-MEL-28); assay: Cell growth inhibition assay (CellTiter-Glo), SK-MEL-28; assay type: cell-based
[4] = B-Raf pIC50, Table 1b, later runs, average pIC50 for the one or more runs
[5] = COLO 205, Table 2b, later runs, average for the one or more runs, categorized, read-out: IC50 for Colo205
[6] = SK-MEL-28, Table 3b, later runs, average for the one or more runs, categorized, read-out: IC50 for SK-MEL-28
[7] = B-Raf Activity, Table 1a, highest pIC50 for the one or more runs
[8] = COLO 205, 72 h, Table 2a, 3 days incubation, read-out: Activity in Colo205 Tumor Cells
[9] = SK-MEL-28, 72 h, Table 3a, 3 days incubation, read-out: Activity in SK-MEL-28 Tumor Cells
[10] = Table 1b, later runs, average pIC50 for the one or more runs, read-out: B-Raf pIC50 (converted)

T1 sequence (P15056 2-766 V600E): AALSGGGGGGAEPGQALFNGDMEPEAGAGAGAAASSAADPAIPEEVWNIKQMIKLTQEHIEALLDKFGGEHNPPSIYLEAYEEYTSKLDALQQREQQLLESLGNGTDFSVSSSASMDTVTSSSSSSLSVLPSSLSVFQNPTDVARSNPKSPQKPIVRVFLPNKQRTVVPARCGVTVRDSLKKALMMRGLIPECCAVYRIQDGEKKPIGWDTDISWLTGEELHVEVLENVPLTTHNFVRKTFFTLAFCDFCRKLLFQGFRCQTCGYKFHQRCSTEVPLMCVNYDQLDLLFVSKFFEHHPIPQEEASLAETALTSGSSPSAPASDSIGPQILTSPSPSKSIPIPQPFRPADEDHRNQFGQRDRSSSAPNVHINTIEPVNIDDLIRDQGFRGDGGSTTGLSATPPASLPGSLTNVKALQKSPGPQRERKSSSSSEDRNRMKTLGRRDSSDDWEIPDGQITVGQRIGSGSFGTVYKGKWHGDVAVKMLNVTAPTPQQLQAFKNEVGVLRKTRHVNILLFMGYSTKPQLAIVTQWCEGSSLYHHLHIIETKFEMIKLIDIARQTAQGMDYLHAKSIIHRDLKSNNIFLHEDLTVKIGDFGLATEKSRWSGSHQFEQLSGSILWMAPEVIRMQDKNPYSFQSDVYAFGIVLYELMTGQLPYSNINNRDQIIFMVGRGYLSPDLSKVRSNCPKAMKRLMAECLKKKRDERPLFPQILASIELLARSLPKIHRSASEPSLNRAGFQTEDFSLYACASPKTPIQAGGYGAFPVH

| SMILES | IC50 [1, 4] [nM] | IC50 [2, 5] [nM] | IC50 [3, 6] [nM] | IC50 [1, 7] [nM] | IC50 [2, 8] [nM] | IC50 [3, 9] [nM] | IC50 [1, 10] [nM] |
| --- | --- | --- | --- | --- | --- | --- | --- |
| Cc1nccc(-c2sc(C(C)(C)C)nc2-c2cccc(NS(=O)(=O)c3ccco3)c2Cl)n1 [Example 263, N-{2-chloro-3-[2-(1,1-dimethylethyl)-5-(2-methyl-4-pyrimidinyl)-1,3-thiazol-4-yl]phenyl}-2-furansulfonamide] | ≤ 3.16 | 100 to 1000 | 100 to 1000 |  |  |  |  |
| Nc1nccc(-c2sc(N3CCS(=O)(=O)CC3)nc2-c2cccc(NS(=O)(=O)c3cc(F)ccc3F)c2F)n1 [Example 142] | ≤ 3.16 | < 100 | < 100 | < 100 | < 100 | < 100 |  |
| CC(C)c1nc(-c2ccc(F)c(NS(=O)(=O)c3cc(F)ccc3F)c2)c(-c2ccnc(NCCS(C)(=O)=O)n2)s1 [Example 201] | ≤ 3.16 | < 100 | < 100 | < 100 | < 100 | < 100 |  |
| Nc1nccc(-c2sc(C3CCOCC3)nc2-c2cccc(NS(=O)(=O)c3cnccn3)c2F)n1 [Example 280, N-{3-[5-(2-amino-4-pyrimidinyl)-2-(tetrahydro-2H-pyran-4-yl)-1,3-thiazol-4-yl]-2-fluorophenyl}-2-pyrazinesulfonamide] | ≤ 3.16 | 100 to 1000 | 100 to 1000 |  |  |  |  |
| CNc1nccc(-c2sc(C(C)C)nc2-c2ccc(F)c(NS(=O)(=O)c3cc(F)ccc3F)c2)n1 [Example 73, 2,5-Difluoro-N-{2-fluoro-5-[5-[2-(methylamino)-4-pyrimidinyl]-2-(1-methylethyl)-1,3-thiazol-4-yl]phenyl}benzenesulfonamide] |  | 1000 to 10000 | 1000 to 10000 | < 100 | > 1000 | > 1000 | 3.16 to 31.6 |
| CC(C)CNc1nccc(-c2sc(C3CCOCC3)nc2-c2cccc(NS(=O)(=O)c3c(F)cccc3F)c2Cl)n1 [Example 18, N-{2-Chloro-3-[5-{2-[(2-methylpropyl)amino]-4-pyrimidinyl}-2-(tetrahydro-2H-pyran-4-yl)-1,3-thiazol-4-yl]phenyl}-2,6-difluorobenzenesulfonamide] | ≤ 3.16 | < 100 | < 100 | < 100 | < 100 | < 100 |  |
| CC(C)CNc1nccc(-c2sc(C(C)(C)C)nc2-c2ccc(F)c(NS(=O)(=O)c3c(F)cccc3F)c2)n1 [Example 46, N-[5-(2-(1,1-Dimethylethyl)-5-{2-[(2-methylpropyl)amino]-4-pyrimidinyl}-1,3-thiazol-4-yl)-2-fluorophenyl]-2,6-difluorobenzenesulfonamide] |  | 100 to 1000 | 100 to 1000 | < 100 | 100 to 1000 | 100 to 1000 | 3.16 to 31.6 |
| CC(C)c1nc(-c2ccc(F)c(NS(=O)(=O)c3ccco3)c2)c(-c2ccnc(NCCS(C)(=O)=O)n2)s1 [Example 34, N-{2-Fluoro-5-[2-(1-methylethyl)-5-(2-{[2-(methylsulfonyl)ethyl]amino}-4-pyrimidinyl)-1,3-thiazol-4-yl]phenyl}-2-furansulfonamide trifluoroacetic acid salt] |  | 1000 to 10000 | 1000 to 10000 | < 100 | > 1000 | > 1000 | 3.16 to 31.6 |
| CC(C)(C)c1nc(-c2cccc(NS(=O)(=O)c3ccoc3)c2Cl)c(-c2ccnc(N)n2)s1 [Example 264, N-{3-[5-(2-amino-4-pyrimidinyl)-2-(1,1-dimethylethyl)-1,3-thiazol-4-yl]-2-chlorophenyl}-3-furansulfonamide] | ≤ 3.16 | < 100 | < 100 |  |  |  |  |
| CC(C)(C)c1nc(-c2cccc(NS(=O)(=O)c3cc(F)ccc3F)c2F)c(-c2ccnc(CCCl)n2)s1 [Example 217] | ≤ 3.16 | < 100 | < 100 | < 100 |  |  |  |
| Cc1nccc(-c2sc(N3CCOCC3)nc2-c2cccc(NS(=O)(=O)c3cc(F)ccc3F)c2Cl)n1 [Example 28, N-{2-Chloro-3-[5-(2-methyl-4-pyrimidinyl)-2-(4-morpholinyl)-1,3-thiazol-4-yl]phenyl}-2,5-difluorobenzenesulfonamide] |  | < 100 | < 100 | < 100 | < 100 | < 100 | 3.16 to 31.6 |
| CC(C)(C)c1nc(-c2cccc(NS(=O)(=O)c3c(F)cccc3F)c2Cl)c(-c2ccncn2)s1 [Example 237, N-{2-chloro-3-[2-(1,1-dimethylethyl)-5-(4-pyrimidinyl)-1,3-thiazol-4-yl]phenyl}-2,6-difluorobenzenesulfonamide] |  | < 100 | < 100 |  |  |  | 3.16 to 31.6 |
| CC(C)(C)c1nc(-c2cccc(NS(=O)(=O)c3c(F)cccc3F)c2F)c(-c2ccnc(CCCO)n2)s1 [Example 247, N-(3-{2-(1,1-dimethylethyl)-5-[2-(3-hydroxypropyl)-4-pyrimidinyl]-1,3-thiazol-4-yl}-2-fluorophenyl)-2,6-difluorobenzenesulfonamide] |  | < 100 | < 100 |  |  |  | 3.16 to 31.6 |
| CC(C)(C)c1nc(-c2cccc(NS(=O)(=O)c3cccc(F)c3)c2F)c(-c2ccncn2)s1 [Example 223, N-{3-[2-(1′-dimethylethyl)-5-(4-pyrimidinyl)-1,3-thiazol-4-yl]-2-fluorophenyl}-3-fluorobenzenesulfonamide] | ≤ 3.16 | < 100 | < 100 |  |  |  |  |
| CC(C)CNc1nccc(-c2sc(C3CCOCC3)nc2-c2cccc(NS(=O)(=O)c3cc(F)ccc3F)c2F)n1 [Example 67, 2,5-Difluoro-N-{2-fluoro-3-[5-{2-[(2-methylpropyl)amino]-4-pyrimidinyl}-2-(tetrahydro-2H-pyran-4-yl)-1,3-thiazol-4-yl]phenyl}benzenesulfonamide] | ≤ 3.16 | < 100 | < 100 | < 100 | < 100 | < 100 |  |
| CC(C)c1nc(-c2ccc(F)c(NS(=O)(=O)c3cc(F)ccc3F)c2)c(-c2ccnc(NC3CC3)n2)s1 [Example 122] | 31.6 to 1000 | 1000 to 10000 | 1000 to 10000 | < 100 | > 1000 | > 1000 |  |
| CC(C)(C)c1nc(-c2c(F)ccc(NS(=O)(=O)c3cccc(F)c3)c2F)c(-c2ccncn2)s1 [Example 221, N-{3-[2-(1,1-dimethylethyl)-5-(4-pyrimidinyl)-1,3-thiazol-4-yl]-2,4-difluorophenyl}-3-fluorobenzenesulfonamide] | ≤ 3.16 | < 100 | < 100 |  |  |  |  |
| CC(C)CNc1nccc(-c2sc(N3CCOCC3)nc2-c2cccc(NS(=O)(=O)c3cc(F)ccc3F)c2F)n1 [Example 182] | ≤ 3.16 | < 100 | < 100 | < 100 | < 100 | < 100 |  |
| CC(C)c1nc(-c2ccc(F)c(NS(=O)(=O)c3cc(F)ccc3F)c2)c(-c2ccnc(NCC3CCNCC3)n2)s1 [Example 128] |  | 1000 to 10000 |  | < 100 | > 1000 | > 1000 | 3.16 to 31.6 |
| CC(C)CNc1nccc(-c2sc(N3CCOCC3)nc2-c2cccc(NS(=O)(=O)c3cc(F)ccc3F)c2)n1 [Example 206] |  | < 100 | < 100 | < 100 | < 100 | < 100 | 3.16 to 31.6 |
| CC(C)(C)c1nc(-c2cccc(NS(=O)(=O)c3ccco3)c2F)c(-c2ccnc(N)n2)s1 [Example 231, N-{3-[5-(2-amino-4-pyrimidinyl)-2-(1,1-dimethylethyl)-1,3-thiazol-4-yl]-2-fluorophenyl}-2-furansulfonamide] | ≤ 3.16 | < 100 | < 100 |  |  |  |  |
| CC(C)(C)c1nc(-c2cccc(NS(=O)(=O)c3c(F)cccc3F)c2F)c(-c2ccnc(NC3CCS(=O)(=O)CC3)n2)s1 [Example 13, N-[3-(2-(1,1-Dimethylethyl)-5-{2-[(1,1-dioxidotetrahydro-2H-thiopyran-4-yl)amino]-4-pyrimidinyl}-1,3-thiazol-4-yl)-2-fluorophenyl]-2,6-difluorobenzenesulfonamide] | ≤ 3.16 | < 100 | < 100 | < 100 | < 100 | < 100 |  |
| Cn1ccnc1S(=O)(=O)Nc1cccc(-c2nc(C(C)(C)C)sc2-c2ccnc(N)n2)c1F [Example 287, N-{3-[5-(2-amino-4-pyrimidinyl)-2-(1,1-dimethylethyl)-1,3-thiazol-4-yl]-2-fluorophenyl}-1-methyl-1H-imidazole-2-sulfonamide hydrochloride] |  | 100 to 1000 | 100 to 1000 |  |  |  | 3.16 to 31.6 |
| CC(C)CNc1nccc(-c2oc(N3CCCC3)nc2-c2cccc(NS(=O)(=O)c3c(F)cccc3F)c2)n1 [Example 111, 2,6-Difluoro-N-{3-[5-{2-[(2-methylpropyl)amino]-4-pyrimidinyl}-2-(1-pyrrolidinyl)-1,3-oxazol-4-yl]phenyl}benzenesulfonamide] | 31.6 to 1000 | 1000 to 10000 | 1000 to 10000 | < 100 |  |  |  |

From patent publication US7994185B2, “Benzene sulfonamide thiazole and oxazole compounds” (Glaxo Smith Kline LLC, priority 2008, dated 2011)
